Reference: patent US20190297887A1, “BICYCLIC COMPOUNDS AS PESTICIDES” (Bayer CropScience Aktiengesellschaft, priority 2016, published 2019)
Like-named read-outs stand apart in the source and are kept apart here.

Experiments:
[1] = test system: green peach aphid (Myzus persicae); test: Myzus persicae - spray test; format: in vivo; details: foliar, application rate 500 g/ha, after 5-6 days, sprayed Chinese cabbage leaf discs, read-out: efficacy in % (aphids killed)
Procedure: Myzus persicae—Spray Test Solvent: 78 parts by weight of acetone • • 1.5 parts by weight of dimethylformamide Emulsifier: alkylaryl polyglycol ether To produce a suitable active ingredient formulation, 1 part by weight of active ingredient is dissolved with the specified parts by weight of solvent and made up to the desired concentration with water containing an emulsifier concentration of 1000 ppm. To produce further test concentrations, the formulation is diluted with emulsifier-containing water. Discs of Chinese cabbage leaves (Brassica pekinensis) infested by all stages of the green peach aphid (Myzus persicae) are sprayed with an active ingredient formulation of the desired concentration. After 5-6 days, the efficacy in % is determined. 100% means that all the aphids have been killed; 0% means that no aphids have been killed.

[2] = test system: southern root-knot nematode (Meloidogyne incognita); test: Meloidogyne incognita test; format: in vivo; details: application rate 20 ppm; after 14 days; lettuce in sand; 100% = no galls
Procedure: Meloidogyne incognita Test Solvent: 125.0 parts by weight of acetone To produce a suitable active ingredient formulation, 1 part by weight of active ingredient is mixed with the stated amount of solvent and the concentrate is diluted to the desired concentration with water. Vessels are filled with sand, active ingredient solution, an egg/larvae suspension of the southern root-knot nematode (Meloidogyne incognita) and lettuce seeds. The lettuce seeds germinate and the plants develop. The galls develop on the roots. After 14 days, the nematicidal efficacy in % is determined by the formation of galls. 100% means that no galls were found; 0% means that the number of galls on the treated plants corresponds to the untreated control.

[3] = test system: green peach aphids (Myzus persicae); test: Myzus persicae - oral test; format: in vivo; details: 120 h, application rate 4 ppm, after 5 days, oral uptake from microtitre plate, read-out: efficacy in % (aphids killed)
Procedure: Myzus persicae—Oral Test Solvent: 100 parts by weight of acetone To produce a suitable active ingredient formulation, 1 part by weight of active ingredient is dissolved with the stated parts by weight of solvent and made up to the desired concentration with water. 50 μl of the active ingredient formulation are transferred into microtitre plates and made up to a final volume of 200 μl with 150 μl of IPL41 insect medium (33%+15% sugar). Subsequently, the plates are sealed with parafilm, which a mixed population of green peach aphids (Myzus persicae) within a second microtitre plate is able to puncture and imbibe the solution. After 5 days, the efficacy in % is determined. 100% means that all the aphids have been killed; 0% means that no aphids have been killed.

[4] = log P determination by HPLC on reversed-phase columns (OECD Guideline 117); format: physicochemical; details: reversed-phase (C18) HPLC column
Procedure: The log P values were determined in accordance with OECD Guideline 117 (EC Directive 92/69/EEC) by HPLC (high-performance liquid chromatography) using reversed-phase (RP) columns (C18), by the following methods: [a] The LC-MS determination in the acidic range is carried out at pH 2.7 with 0.1% aqueous formic acid and acetonitrile (contains 0.1% formic acid) as eluents; linear gradient from 10% acetonitrile to 95% acetonitrile. [b] LC-MS determination in the neutral range is carried out at pH 7.8 with 0.001 molar aqueous ammonium hydrogencarbonate solution and acetonitrile as eluents; linear gradient from 10% acetonitrile to 95% acetonitrile. Calibration is effected using unbranched alkan-2-ones (having 3 to 16 carbon atoms) with known log P values (log P values determined on the basis of the retention times by linear interpolation between two successive alkanones).

[5] = test system: larvae of the mustard beetle (Phaedon cochleariae); test: Phaedon cochleariae - spray test; format: in vivo; details: application rate 500 g/ha; after 7 days; sprayed Chinese cabbage leaf discs
Procedure: Phaedon cochleariae—Spray Test
Solvent: 78.0 parts by weight of acetone • • 1.5 parts by weight of dimethylformamide
Emulsifier: alkylaryl polyglycol ether
To produce a suitable active ingredient formulation, 1 part by weight of active ingredient is dissolved with the specified parts by weight of solvent and made up to the desired concentration with water containing an emulsifier concentration of 1000 ppm. To produce further test concentrations, the formulation is diluted with emulsifier-containing water.
Discs of Chinese cabbage leaves (Brassica pekinensis) are sprayed with an active compound formulation of the desired concentration and, after drying, populated with larvae of the mustard beetle (Phaedon cochleariae).
After 7 days, the efficacy in % is determined. 100% means that all the beetle larvae have been killed; 0% means that no beetle larvae have been killed.

[6] = acidic range, pH 2.7, 0.1% aqueous formic acid/acetonitrile, read-out: log P(HCOOH)
[7] = neutral range, pH 7.8, 0.001 molar aqueous ammonium hydrogencarbonate/acetonitrile, read-out: log P(neutral)

Row | Compound | pest or weed control at 500 g/ha [1] | pest or weed control at 4 ppm [3] | other results
1 | Cn1c(=O)n(C)n(-c2ccc3nn(-c4cccnc4)cc3c2)c1=O [Example 1, 1,4-Dimethyl-2-[2-(pyridin-3-yl)-2H-indazol-5-yl]-1,2,4-triazolidine-3,5-dione] | 90% | 100% | nematicidal efficacy in % (formation of galls) [2]: 90%; chromatographic logP [4, 6]: 1.24; chromatographic logP [4, 7]: 1.31
2 | Cn1c(=O)cnn(-c2ccc3nn(-c4cccnc4)cc3c2)c1=O [Example 2, 4-Methyl-2-[2-(pyridin-3-yl)-2H-indazol-5-yl]-1,2,4-triazine-3,5(2H,4H)-dione] | 90% | 100% | chromatographic logP [4, 6]: 1.38; chromatographic logP [4, 7]: 1.47
3 | Cn1c(=O)n(C2CC2)c(=O)n1-c1ccc2nn(-c3cccnc3)cc2c1 [Example 3] | 100% | 100% | –
4 | Cn1c(=O)n(-c2ccccc2)c(=O)n1-c1ccc2nn(-c3cccnc3)cc2c1 [Example 4] | 90% | 100% | efficacy in % (beetle larvae killed) [5]: 83%
5 | CCn1c(=O)n(C)n(-c2ccc3nn(-c4cccnc4)cc3c2)c1=O [Example 5] | 90% | 100% | –
6 | CSCCn1c(=O)n(C)n(-c2ccc3nn(-c4cccnc4)cc3c2)c1=O [Example 6] | 100% | 90% | –
7 | Cn1c(=O)n(CC2CC2)c(=O)n1-c1ccc2nn(-c3cccnc3)cc2c1 [Example 7] | 90% | 100% | –
8 | Cn1c(=O)n(Cc2ccccc2)c(=O)n1-c1ccc2nn(-c3cccnc3)cc2c1 [Example 8] | 100% | 100% | –
9 | Cn1c(=O)n(CC(F)(F)F)c(=O)n1-c1ccc2nn(-c3cccnc3)cc2c1 [Example 9] | 90% | 100% | –
10 | Cn1c(=O)n(CC(F)(F)F)n(-c2ccc3nn(-c4cccnc4)cc3c2)c1=O [Example 10] | – | 100% | –
11 | Cn1c(=O)n(CC[S+](C)[O-])c(=O)n1-c1ccc2nn(-c3cccnc3)cc2c1 (stereo not shown) [Example 11] | 90% | 100% | –
12 | COCCn1c(=O)n(C)n(-c2ccc3nn(-c4cccnc4)cc3c2)c1=O [Example 12] | 90% | 100% | –
13 | CC(C)n1c(=O)n(C)n(-c2ccc3nn(-c4cccnc4)cc3c2)c1=O [Example 13] | – | 90% | –
14 | Cn1c(=O)n(CC(F)F)c(=O)n1-c1ccc2nn(-c3cccnc3)cc2c1 [Example 14] | 90% | 100% | –
15 | Cn1c(=O)n(Cc2ccc(Cl)cc2)c(=O)n1-c1ccc2nn(-c3cccnc3)cc2c1 [Example 15] | – | 100% | –
16 | Cn1c(=O)n(Cc2ccccc2Cl)c(=O)n1-c1ccc2nn(-c3cccnc3)cc2c1 [Example 16] | – | 90% | –
17 | Cn1c(=O)n(Cc2cccc(Cl)c2)c(=O)n1-c1ccc2nn(-c3cccnc3)cc2c1 [Example 17] | – | 100% | –
18 | CCn1c(=O)n(C)n(-c2cnc3nn(-c4cccnc4)cc3c2)c1=O [Example 18] | 100% | 100% | –
19 | Cn1c(=O)n(C)n(-c2cnc3nn(-c4cccnc4)cc3c2)c1=O [Example 19] | 100% | 90% | –
20 | Cn1c(=O)n(C2CC2)c(=O)n1-c1cnc2nn(-c3cccnc3)cc2c1 [Example 20] | 90% | 100% | –
21 | Cn1c(=O)n(CC2CC2)c(=O)n1-c1cnc2nn(-c3cccnc3)cc2c1 [Example 21] | 100% | 100% | –
22 | CC(C)n1c(=O)n(C)n(-c2cnc3nn(-c4cccnc4)cc3c2)c1=O [Example 22] | – | 100% | –
23 | Cn1c(=O)n(Cc2ccc(Cl)nc2)c(=O)n1-c1ccc2nn(-c3cccnc3)cc2c1 [Example 23] | 100% | 100% | –
24 | O=c1cnn(-c2ccc3nn(-c4cccnc4)cc3c2)c(=O)n1CC(F)(F)F [Example 24] | – | 100% | –
25 | CCn1c(=O)cnn(-c2ccc3nn(-c4cccnc4)cc3c2)c1=O [Example 25] | 100% | 100% | efficacy in % (beetle larvae killed) [5]: 83%
26 | O=c1cnn(-c2ccc3nn(-c4cccnc4)cc3c2)c(=O)n1CC1CC1 [Example 26] | 90% | 100% | –
27 | O=c1cnn(-c2ccc3nn(-c4cccnc4)cc3c2)c(=O)n1Cc1ccccc1 [Example 27] | 90% | 100% | –
28 | O=c1cnn(-c2ccc3nn(-c4cccnc4)cc3c2)c(=O)n1-c1ccccc1 [Example 28] | – | 90% | –
